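Method: 48-hour compound exposure of cells in 96-well plates, five concentrations, linear interpolation of endpoints. Definition used: TGI = concentration required for complete inhibition of growth.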
What was measured:
Experiment in all cases: inhibition of tumour cell growth, NCI panel, 48 h
MDA-N = tested on: MDA-N
U251 CNS = tested on: U251 CNS
SK-OV-3 ovarian = tested on: SK-OV-3 ovarian
NCI-H460 lung = tested on: NCI-H460 lung
MDA-MB-231 breast = tested on: MDA-MB-231 breast
BT-549 breast = tested on: BT-549 breast
UACC-62 melanoma = tested on: UACC-62 melanoma
LOX IMVI melanoma = tested on: LOX IMVI melanoma
HT29 colon = tested on: HT29 colon
NCI-H226 lung = tested on: NCI-H226 lung
MDA-MB-435 = tested on: MDA-MB-435
K-562 leukemia = tested on: K-562 leukemia
HOP-62 NSCLC = tested on: HOP-62 NSCLC
A549 NSCLC = tested on: A549 NSCLC
SK-MEL-28 melanoma = tested on: SK-MEL-28 melanoma
EKVX NSCLC = tested on: EKVX NSCLC
TK-10 renal = tested on: TK-10 renal
KM12 colon = tested on: KM12 colon
MCF7 breast = tested on: MCF7 breast
HCT-116 colon = tested on: HCT-116 colon

Row | SMILES | TGI (MDA-N) | TGI (U251 CNS) | TGI (SK-OV-3 ovarian) | TGI (NCI-H460 lung) | TGI (MDA-MB-231 breast) | TGI (BT-549 breast) | TGI (UACC-62 melanoma) | TGI (LOX IMVI melanoma) | TGI (HT29 colon) | TGI (NCI-H226 lung) | TGI (MDA-MB-435) | TGI (K-562 leukemia) | TGI (HOP-62 NSCLC) | TGI (A549 NSCLC) | TGI (SK-MEL-28 melanoma) | TGI (EKVX NSCLC) | TGI (TK-10 renal) | TGI (KM12 colon) | TGI (MCF7 breast) | TGI (HCT-116 colon)
1 | O=C(CC(=O)N(C(=O)/C=C\c1ccccc1)c1ccc(Cl)cc1)N1N=C(c2ccccc2)C(N=Nc2cccc([N+](=O)[O-])c2)C1=O (stereo not given) | > 100 µM | 33.7 µM | 40.7 µM | 29.5 µM | 37.7 µM | 46.9 µM | 42.1 µM | > 100 µM | 15.2 µM | 55.9 µM | > 100 µM | 68.6 µM | 40.8 µM | > 100 µM | 98.1 µM | > 100 µM | 38.9 µM | 38.7 µM | 28.4 µM | 13.5 µM
2 | COC(=O)c1ccc(C)cc1CC1Cc2cc(C)ccc2C1=O (stereo not given) | > 100 µM | > 100 µM | > 100 µM | > 100 µM | > 100 µM | > 100 µM | > 100 µM | > 100 µM | > 100 µM | > 100 µM | > 100 µM | > 100 µM | > 100 µM | > 100 µM | > 100 µM | > 100 µM | > 100 µM | > 100 µM | > 100 µM | > 100 µM
3 | CNC1=C(C)C(=O)C(=O)C([C@H](C)CCC=C(C)C)=C1O | > 100 µM | > 100 µM | 83.3 µM | > 100 µM | > 100 µM | > 100 µM | > 72.3 µM | > 100 µM | > 100 µM | > 72.9 µM | > 100 µM | > 100 µM | > 31.6 µM | > 100 µM | > 100 µM | > 100 µM | > 100 µM | > 100 µM | > 100 µM | > 100 µM
